Values of other authors as cited in patent EP0611304B1, “USE OF […] (ACEMANNAN) FOR THE REGULATION OF BLOOD C[…] AND FOR REMOVING PLAQUES IN BLOOD VESSELS” (CARRINGTON LABORATORIES, INC., priority 1991, dated 1993).

Tested on: CEM cells infected with HTLV-IIIRFII virus
Settings: 0.001 µg/ml AZT alone

Cc1cn([C@H]2C[C@H](N=[N+]=[N-])[C@@H](CO)O2)c(=O)[nH]c1=O [AZT, Zidovudine]
increase in viability of infected CEM cells: no more than 10%
